Data as given in ChEMBL document CHEMBL3352755, “Synthesis and influenza virus inhibitory activities of carbosilane dendrimers peripherally functionalized with hemagglutinin-binding Peptide” (J Med Chem, 2014).

Experiments:
[1] = Antiviral activity against Influenza A virus (A/Aichi/2/1968(H3N2)) infected in MDCK cells after 2 days using crystal violet staining by plaque assay; type: functional, cell-based; conditions: 48 h
[2] = Hemolytic activity in chicken erythrocytes at 240 uM after 24 hrs by spectrophotometry; type: ADME, cell-based, Gallus gallus, Erythrocyte; conditions: read-out: Activity
[3] = Critical micelle concentration of the compound in PBS using N-phenyl-1-naphthylamine by fluorescence assay; type: ADME; conditions: buffer
[4] = Hemolytic activity in chicken erythrocytes at 48 uM after 24 hrs by spectrophotometry; type: ADME, cell-based, Gallus gallus, Erythrocyte; conditions: read-out: Activity
Influenza A virus = experiment: Antiviral activity against Influenza A virus (A/Puerto Rico/8/34(H1N1)) infected in MDCK cells after 2 days using crystal violet staining by plaque assay; type: functional, organism-based; conditions: A/Puerto Rico/8/1934(H1N1), 48 h
MDCK [5] = experiment: Cytotoxicity against MDCK cells at 10 times IC50 in antiviral assay after 2 days by WST-1 cell counting assay; type: cell-based, Canis lupus familiaris; conditions: dog, 48 h
[6] = Hemolytic activity in chicken erythrocytes at 30 to 40 uM after 24 hrs by spectrophotometry; type: ADME, cell-based, Gallus gallus; conditions: erythrocyte
MDCK [7] = experiment: Cytotoxicity against MDCK cells at 200 uM after 2 days by WST-1 cell counting assay; type: cell-based, Canis lupus familiaris; conditions: dog, 48 h

SMILES: CC(C)C[C@H](NC(=O)[C@H](CCCNC(=N)N)NC(=O)[C@H](C)N)C(=O)N1CCC[C@H]1C(=O)N[C@@H](CCCNC(=N)N)C(=O)NCCC[Si](CCCNC(=O)[C@H](CCCNC(=N)N)NC(=O)[C@@H]1CCCN1C(=O)[C@H](CC(C)C)NC(=O)[C@H](CCCNC(=N)N)NC(=O)[C@H](C)N)(CCCNC(=O)[C@H](CCCNC(=N)N)NC(=O)[C@@H]1CCCN1C(=O)[C@H](CC(C)C)NC(=O)[C@H](CCCNC(=N)N)NC(=O)[C@H](C)N)CCC[Si](C)(C)CCC[Si](CCCNC(=O)[C@H](CCCNC(=N)N)NC(=O)[C@@H]1CCCN1C(=O)[C@H](CC(C)C)NC(=O)[C@H](CCCNC(=N)N)NC(=O)[C@H](C)N)(CCCNC(=O)[C@H](CCCNC(=N)N)NC(=O)[C@@H]1CCCN1C(=O)[C@H](CC(C)C)NC(=O)[C@H](CCCNC(=N)N)NC(=O)[C@H](C)N)CCCNC(=O)[C@H](CCCNC(=N)N)NC(=O)[C@@H]1CCCN1C(=O)[C@H](CC(C)C)NC(=O)[C@H](CCCNC(=N)N)NC(=O)[C@H](C)N
- IC50 [1]: 0.6 µM
- hemolysis at 24 h, 240 µM [2]: 85%
- CMC [3]: 4 µM
- hemolysis at 24 h, 48 µM [4]: 46%
- IC50 (Influenza A virus): 0.72 µM
- Activity (MDCK [5]): Non-toxic

SMILES: CC(C)C[C@H](NC(=O)[C@H](CCCNC(=N)N)NC(=O)[C@H](C)N)C(=O)N1CCC[C@H]1C(=O)N[C@@H](CCCNC(=N)N)C(=O)NCCC[Si](CCCNC(=O)[C@H](CCCNC(=N)N)NC(=O)[C@@H]1CCCN1C(=O)[C@H](CC(C)C)NC(=O)[C@H](CCCNC(=N)N)NC(=O)[C@H](C)N)(CCCNC(=O)[C@H](CCCNC(=N)N)NC(=O)[C@@H]1CCCN1C(=O)[C@H](CC(C)C)NC(=O)[C@H](CCCNC(=N)N)NC(=O)[C@H](C)N)CCCNC(=O)[C@H](CCCNC(=N)N)NC(=O)[C@@H]1CCCN1C(=O)[C@H](CC(C)C)NC(=O)[C@H](CCCNC(=N)N)NC(=O)[C@H](C)N
- Activity [6]: Non-toxic
- IC50 [1]: > 400 µM
- Activity (MDCK [7]): Non-toxic
- IC50 (Influenza A virus): > 400 µM

SMILES: CC(C)C[C@H](NC(=O)[C@H](CCCNC(=N)N)NC(=O)[C@H](C)N)C(=O)N1CCC[C@H]1C(=O)N[C@@H](CCCNC(=N)N)C(=O)NCCC[Si](CCCNC(=O)[C@H](CCCNC(=N)N)NC(=O)[C@@H]1CCCN1C(=O)[C@H](CC(C)C)NC(=O)[C@H](CCCNC(=N)N)NC(=O)[C@H](C)N)(CCCNC(=O)[C@H](CCCNC(=N)N)NC(=O)[C@@H]1CCCN1C(=O)[C@H](CC(C)C)NC(=O)[C@H](CCCNC(=N)N)NC(=O)[C@H](C)N)c1ccccc1
- Activity [6]: Non-toxic
- IC50 [1]: 5.7 µM
- CMC [3]: 3.9 µM
- IC50 (Influenza A virus): 12.6 µM
- Activity (MDCK [5]): Non-toxic
